Measurements published in PMC11647725, “Discovery of 4-(5-Membered)Heteroarylether-6-methylpicolinamide Negative Allosteric Modulators of Metabotropic Glutamate Receptor Subtype 5” (ACS Medicinal Chemistry Letters, 2024).

Tests used:
[1] = target: Transporter, Norepinephrine (NET) (Homo sapiens, UniProt P23975); assay: Lead Profiling Screen, Eurofins Panlabs; assay type: binding; conditions: hum, read-out: % inh at 10 μM
[2] = target: T1, CYP 2C9 (Homo sapiens, UniProt P11712); assay: P450 inhibition in pooled human liver microsomes; assay type: in vitro ADME; conditions: pooled HLM, NADPH, CYP-specific probe substrates; listed as VU6043653
T1 construct: from tissue; host or cells: pooled human liver microsomes (per the earlier reading)

[3] = In vivo dog pharmacokinetics; conditions: Dog (beagle)
[4] = target: Nicotinic Acetylcholine α1, Bungarotoxin (Homo sapiens, UniProt P02708+P07510+Q07001); assay: biochemical; assay type: binding; conditions: read-out: % inh at 10 μM
[5] = Binding in plasma from rat (equilibrium dialysis); assay type: in vitro ADME; conditions: rat, plasma, fraction unbound; equilibrium dialysis; read-out: Rat fu,plasma
Description: Binding in plasma from rat and human.
Determination of compounds’ fraction unbound (f u) in plasma from rat and human was conducted in vitro via equilibrium dialysis using HTDialysis membrane plates. Dialysis membranes (four paired strips per HTD assay) were hydrated as described by the manufacturer and inserted into the HTD plate, which was assembled and prepared for sample addition by the dispensing of blank buffer (DPBS, 100 µL/well) into the ‘top half’ of each membrane-split well. Each compound was diluted into plasma from each species (5 µM final concentration), which was aliquoted in triplicate to the ‘bottom half’ of the prepared HTD plate wells. The HTD plate was sealed and incubated for 6 hours at 37 °C. Following incubation, each well (both top and bottom halves) were transferred (20 µL) to the corresponding wells of a 96-shallow-well (V-bottom) plate. The daughter plates were then matrix-matched (buffer side wells received equal volume of plasma, and plasma side wells received equal volume of buffer), and extraction solution (120 µL; acetonitrile containing 50 nM carbamazepine as IS) was added to all wells of both daughter plates to precipitate protein and extract test article. The plates were then sealed and centrifuged (3500 rcf) for 10 minutes at ambient temperature. Supernatant (60 µL) from each well of the daughter plates was then transferred to the corresponding wells of new daughter plates (96-shallow-well, V bottom) containing water (Milli-Q, 60 µL/well), and the plates were sealed in preparation for LC-MS/MS analysis (see below). fu was calculated as (analyte to IS MS peak area ratio from Trans-buffer side) / (analyte to IS MS peak area ratio from Cis-plasma side). Mean values for each species were calculated from 3 replicates. […]
Mean values for each species were calculated from 3 replicates. […]
After 5 minutes (pre-incubation), reactions were initiated by addition of nicotinamide adenine dinucleotide phosphate (NADPH, 1 mM final concentration). At selected time intervals (0, 3, 7, 15, 25, and 45 minutes) post-addition of NADPH, aliquots (50 µL) were taken and placed into a 96-shallow-well plate containing ice cold acetonitrile (150 µL) with carbamazepine (IS, 50 nM). The plates were then centrifuged (3000 rcf at 4 °C) for 10 minutes. The supernatants were transferred to a new 96-shallow-well daughter plate and diluted (1:1 v/v) with water (Milli-Q filtered). The plates were then sealed in preparation for LC-MS/MS analysis (see below).

[6] = target: Neuropeptide Y Y2 (Homo sapiens, UniProt P49146); assay: Lead Profiling Screen, Eurofins Panlabs; assay type: binding; conditions: Neuropeptide Y Y2, hum, read-out: % inh at 10 μM
[7] = target: Melatonin MT1 (Homo sapiens, UniProt P48039); assay: Lead Profiling Screen, Eurofins Panlabs; assay type: binding; conditions: Melatonin MT1, hum, read-out: % inh at 10 μM
[8] = target: Androgen (Testosterone) (Homo sapiens, UniProt P10275); assay: Lead Profiling Screen, Eurofins Panlabs; assay type: binding; conditions: hum, read-out: % inh at 10 μM
Description: (§1) Nonetheless, as a non-aryl/heterobiaryl acetylene mGlu5 NAM with an encouraging in vivo rodent PK profile, we wished to further assess VU6043653 as a novel chemotype. Therefore, we compared metabolites in multiple species to better understand species differences in clearance and metabolism. […] Consistent with the high plasma clearance observed in dogs, high turnover was observed more so in dog hepatocytes than any other species tested (see the Supporting Information for additional details and results). To further evaluate our novel chemotype, the off-target and safety/toxicity profiles for this compound were further investigated.
(§2) Table S2. Lead Profiling Screen – Eurofins Panlabs for VU6043653.
(§3) Assay Name Species % inh at 10 μM
(§4) Androgen (Testosterone) hum 75
(§5) Calcium Channel L-Type, Benzothiazepine rat 22
(§6) Calcium Channel L-Type, Dihydropyridine rat 1
(§7) Calcium Channel N-Type rat -8
(§8) Epidermal Growth Factor (EGF) hum -3
(§9) GABAA, Flunitrazepam, Central rat 0
(§10) GABAA, Muscimol, Central rat -5
(§11) Glutamate, Kainate rat -7
(§12) Glutamate, NMDA, Agonism rat 3
(§13) Glutamate, NMDA, Glycine rat -18
(§14) Glutamate, NMDA, Phencyclidine rat -4
(§15) Imidazoline I2, Central rat -1

[9] = target: Adenosine A3 (Homo sapiens, UniProt P0DMS8); assay: Lead Profiling Screen, Eurofins Panlabs; assay type: binding; conditions: Adenosine A3, hum, read-out: % inh at 10 μM
Description: as §1, §2, §3, §4, §5, §6, §7, §8, §9, §10, §11, §12, §13, §14, §15

[10] = target: T2, CYP 2D6 (Homo sapiens, UniProt P10635); assay: P450 inhibition in pooled human liver microsomes; assay type: in vitro ADME; conditions: pooled HLM, NADPH, CYP-specific probe substrates; listed as VU6043653
T2 construct: from tissue; host or cells: pooled human liver microsomes (per the earlier reading)

[11] = test system: Potassium Channel [KATP]; assay: Lead Profiling Screen, Eurofins Panlabs; assay type: binding, hamster; conditions: ham
[12] = target: hERG potassium channel (Homo sapiens, UniProt Q12809); assay: Lead Profiling Screen, Eurofins Panlabs; assay type: binding; conditions: hum, read-out: % inh at 10 μM
[13] = Hepatocyte metabolism study; assay type: in vitro ADME; conditions: dog hepatocytes, more so than any other species tested
Description: as §1
Table S3. Tentatively Identified Metabolites of VU6043653 in Rat, Dog, Monkey, and Human Hepatocytes (10 μM incubation for 0 and 4 hours). […]
metabolite observed with rat, dog, monkey, and human hepatocytes was M1. Overall, the major pathways for VU6043653 appear to be oxidation, demethylation, and glucuronidation.
(1 picture or pasted object on this page, not shown here)

[14] = target: Sigma σ1 (Homo sapiens, UniProt Q99720); assay: Lead Profiling Screen, Eurofins Panlabs; assay type: binding; conditions: Sigma σ1, hum, read-out: % inh at 10 μM
[15] = target: T3, CYP 3A4 (Homo sapiens, UniProt P08684); assay: P450 inhibition in pooled human liver microsomes; assay type: in vitro ADME; conditions: pooled HLM, NADPH, CYP-specific probe substrates; listed as VU6043653
T3 construct: from tissue; host or cells: pooled human liver microsomes (per the earlier reading)

[16] = target: Nicotinic Acetylcholine α3β4 (Homo sapiens, UniProt P30926+P32297); assay: Lead Profiling Screen, Eurofins Panlabs; assay type: binding; conditions: Nicotinic Acetylcholine α3β4, hum, read-out: % inh at 10 μM
[17] = test system: Purinergic P2Y, Non-Selective; assay: Lead Profiling Screen, Eurofins Panlabs; assay type: binding; conditions: rat

T1 sequence (P11712 whole entry): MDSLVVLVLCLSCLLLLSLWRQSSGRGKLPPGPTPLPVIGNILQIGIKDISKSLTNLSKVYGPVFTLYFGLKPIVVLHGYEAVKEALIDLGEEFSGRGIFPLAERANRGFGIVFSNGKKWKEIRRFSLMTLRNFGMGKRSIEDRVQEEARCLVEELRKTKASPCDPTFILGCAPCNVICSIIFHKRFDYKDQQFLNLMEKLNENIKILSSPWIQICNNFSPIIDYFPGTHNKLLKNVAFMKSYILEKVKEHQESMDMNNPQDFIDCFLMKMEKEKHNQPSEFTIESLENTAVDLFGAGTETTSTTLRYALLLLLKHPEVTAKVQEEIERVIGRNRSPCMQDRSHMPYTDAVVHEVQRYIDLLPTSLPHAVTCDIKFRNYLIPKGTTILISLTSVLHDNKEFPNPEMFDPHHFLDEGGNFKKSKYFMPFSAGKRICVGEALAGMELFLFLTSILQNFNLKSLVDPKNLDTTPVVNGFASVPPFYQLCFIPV
T2 sequence (P10635 whole entry): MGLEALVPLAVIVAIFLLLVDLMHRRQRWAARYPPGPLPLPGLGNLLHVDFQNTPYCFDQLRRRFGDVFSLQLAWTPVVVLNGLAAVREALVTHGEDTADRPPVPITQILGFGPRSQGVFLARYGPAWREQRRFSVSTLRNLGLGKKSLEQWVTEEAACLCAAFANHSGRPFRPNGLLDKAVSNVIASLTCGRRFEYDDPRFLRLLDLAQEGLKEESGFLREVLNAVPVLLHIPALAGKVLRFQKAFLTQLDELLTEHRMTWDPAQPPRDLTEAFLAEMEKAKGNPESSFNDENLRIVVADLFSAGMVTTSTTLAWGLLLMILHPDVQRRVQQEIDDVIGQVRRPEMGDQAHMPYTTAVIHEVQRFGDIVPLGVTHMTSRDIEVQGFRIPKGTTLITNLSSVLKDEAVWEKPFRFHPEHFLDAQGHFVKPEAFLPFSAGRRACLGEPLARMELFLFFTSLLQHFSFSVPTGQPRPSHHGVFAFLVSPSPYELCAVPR
T3 sequence (P08684 whole entry): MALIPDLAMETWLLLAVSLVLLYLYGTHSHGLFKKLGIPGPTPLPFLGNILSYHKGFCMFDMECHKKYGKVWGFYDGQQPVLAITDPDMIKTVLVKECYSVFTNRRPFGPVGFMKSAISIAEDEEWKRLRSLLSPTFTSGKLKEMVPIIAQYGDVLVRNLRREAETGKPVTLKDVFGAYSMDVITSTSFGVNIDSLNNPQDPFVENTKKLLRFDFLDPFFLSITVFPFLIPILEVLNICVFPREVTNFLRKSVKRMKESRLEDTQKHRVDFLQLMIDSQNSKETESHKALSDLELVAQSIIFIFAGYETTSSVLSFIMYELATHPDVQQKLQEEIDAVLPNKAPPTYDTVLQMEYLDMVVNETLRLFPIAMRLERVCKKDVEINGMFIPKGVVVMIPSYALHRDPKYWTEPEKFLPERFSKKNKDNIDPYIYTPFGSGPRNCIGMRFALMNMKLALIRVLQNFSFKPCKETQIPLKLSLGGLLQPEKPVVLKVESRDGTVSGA
Nicotinic Acetylcholine α1, Bungarotoxin, sequence (P07510 23-517): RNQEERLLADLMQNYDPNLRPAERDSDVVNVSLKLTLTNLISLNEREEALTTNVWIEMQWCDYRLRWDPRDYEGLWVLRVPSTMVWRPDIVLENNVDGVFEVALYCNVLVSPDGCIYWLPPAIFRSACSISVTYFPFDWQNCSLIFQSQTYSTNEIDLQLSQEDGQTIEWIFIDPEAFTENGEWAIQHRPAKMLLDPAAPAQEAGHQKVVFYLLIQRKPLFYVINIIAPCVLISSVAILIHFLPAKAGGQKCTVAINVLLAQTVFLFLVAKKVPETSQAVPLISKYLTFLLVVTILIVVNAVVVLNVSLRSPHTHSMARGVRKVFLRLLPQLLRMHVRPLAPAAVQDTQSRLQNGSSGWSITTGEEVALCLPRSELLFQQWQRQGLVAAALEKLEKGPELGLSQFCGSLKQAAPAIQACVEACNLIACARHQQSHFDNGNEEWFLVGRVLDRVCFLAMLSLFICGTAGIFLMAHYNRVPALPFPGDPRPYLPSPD
Nicotinic Acetylcholine α1, Bungarotoxin, sequence (P11230 24-501, further chain): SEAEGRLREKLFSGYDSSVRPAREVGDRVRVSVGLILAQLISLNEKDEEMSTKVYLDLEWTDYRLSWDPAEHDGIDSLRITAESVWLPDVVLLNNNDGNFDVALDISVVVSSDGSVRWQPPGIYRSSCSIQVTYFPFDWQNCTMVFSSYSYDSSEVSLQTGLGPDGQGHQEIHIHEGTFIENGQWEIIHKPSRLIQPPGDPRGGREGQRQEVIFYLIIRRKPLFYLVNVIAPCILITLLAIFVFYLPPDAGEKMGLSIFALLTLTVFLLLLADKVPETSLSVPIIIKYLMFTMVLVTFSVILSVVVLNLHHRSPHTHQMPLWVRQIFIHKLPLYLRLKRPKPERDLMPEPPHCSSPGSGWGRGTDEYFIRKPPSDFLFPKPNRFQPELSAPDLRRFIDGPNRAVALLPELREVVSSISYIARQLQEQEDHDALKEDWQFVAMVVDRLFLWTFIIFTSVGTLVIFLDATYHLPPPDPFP
Nicotinic Acetylcholine α1, Bungarotoxin, sequence (Q07001 22-517): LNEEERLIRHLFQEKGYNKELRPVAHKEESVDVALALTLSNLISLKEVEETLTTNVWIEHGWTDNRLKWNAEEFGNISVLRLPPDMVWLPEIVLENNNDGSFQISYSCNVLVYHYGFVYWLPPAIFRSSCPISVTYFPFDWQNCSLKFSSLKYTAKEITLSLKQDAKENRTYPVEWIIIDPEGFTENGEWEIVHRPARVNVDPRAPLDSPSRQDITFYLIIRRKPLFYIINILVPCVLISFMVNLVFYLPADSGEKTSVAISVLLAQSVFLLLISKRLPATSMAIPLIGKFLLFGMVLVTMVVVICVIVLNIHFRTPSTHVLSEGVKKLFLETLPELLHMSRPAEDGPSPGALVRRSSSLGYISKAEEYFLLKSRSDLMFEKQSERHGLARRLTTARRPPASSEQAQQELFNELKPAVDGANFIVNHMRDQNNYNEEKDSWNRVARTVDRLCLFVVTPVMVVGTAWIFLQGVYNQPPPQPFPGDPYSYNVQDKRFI
Nicotinic Acetylcholine α1, Bungarotoxin, sequence (P02708 21-457): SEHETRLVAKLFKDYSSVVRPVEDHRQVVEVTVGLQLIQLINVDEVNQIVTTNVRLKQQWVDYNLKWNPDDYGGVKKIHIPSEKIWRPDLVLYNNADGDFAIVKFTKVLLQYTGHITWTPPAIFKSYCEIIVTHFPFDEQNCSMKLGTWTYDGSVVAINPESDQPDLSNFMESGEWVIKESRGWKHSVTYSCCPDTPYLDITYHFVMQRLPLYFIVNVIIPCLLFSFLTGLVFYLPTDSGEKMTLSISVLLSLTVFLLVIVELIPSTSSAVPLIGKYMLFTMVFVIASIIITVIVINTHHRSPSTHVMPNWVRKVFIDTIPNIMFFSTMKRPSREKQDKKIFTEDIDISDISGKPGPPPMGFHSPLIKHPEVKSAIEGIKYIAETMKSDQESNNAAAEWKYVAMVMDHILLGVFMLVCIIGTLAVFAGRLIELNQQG
Androgen (Testosterone), sequence (P10275 whole entry): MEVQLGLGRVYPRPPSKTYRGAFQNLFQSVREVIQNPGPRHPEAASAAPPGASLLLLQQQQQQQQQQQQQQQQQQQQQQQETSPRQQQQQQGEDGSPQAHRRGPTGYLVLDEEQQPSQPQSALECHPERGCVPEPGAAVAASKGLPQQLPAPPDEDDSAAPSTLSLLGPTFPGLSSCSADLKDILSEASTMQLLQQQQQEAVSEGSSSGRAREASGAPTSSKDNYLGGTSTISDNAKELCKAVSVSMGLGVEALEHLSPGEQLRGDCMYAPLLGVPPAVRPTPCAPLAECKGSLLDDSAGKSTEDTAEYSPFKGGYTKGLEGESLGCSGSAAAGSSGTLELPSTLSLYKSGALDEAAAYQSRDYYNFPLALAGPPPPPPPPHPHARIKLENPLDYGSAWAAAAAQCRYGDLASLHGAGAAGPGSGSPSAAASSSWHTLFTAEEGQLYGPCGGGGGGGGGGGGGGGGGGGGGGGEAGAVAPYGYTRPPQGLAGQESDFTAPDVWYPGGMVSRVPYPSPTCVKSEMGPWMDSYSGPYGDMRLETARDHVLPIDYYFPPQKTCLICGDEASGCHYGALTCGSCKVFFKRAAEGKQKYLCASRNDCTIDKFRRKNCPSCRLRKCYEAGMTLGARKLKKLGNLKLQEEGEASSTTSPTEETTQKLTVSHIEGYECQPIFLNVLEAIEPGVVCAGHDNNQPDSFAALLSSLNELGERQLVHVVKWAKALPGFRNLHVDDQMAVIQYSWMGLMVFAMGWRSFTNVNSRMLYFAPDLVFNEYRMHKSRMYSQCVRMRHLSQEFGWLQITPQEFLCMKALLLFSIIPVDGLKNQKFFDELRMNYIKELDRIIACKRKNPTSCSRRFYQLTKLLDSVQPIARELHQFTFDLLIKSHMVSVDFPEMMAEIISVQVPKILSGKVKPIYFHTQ
Sigma σ1, sequence (Q99720 whole entry): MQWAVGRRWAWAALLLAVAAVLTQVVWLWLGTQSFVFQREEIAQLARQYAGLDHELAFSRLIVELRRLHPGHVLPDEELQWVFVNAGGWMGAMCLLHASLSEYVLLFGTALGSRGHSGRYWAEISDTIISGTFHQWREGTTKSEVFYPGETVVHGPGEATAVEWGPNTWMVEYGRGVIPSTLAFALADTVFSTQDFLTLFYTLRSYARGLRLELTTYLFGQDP
Neuropeptide Y Y2, sequence (P49146 whole entry): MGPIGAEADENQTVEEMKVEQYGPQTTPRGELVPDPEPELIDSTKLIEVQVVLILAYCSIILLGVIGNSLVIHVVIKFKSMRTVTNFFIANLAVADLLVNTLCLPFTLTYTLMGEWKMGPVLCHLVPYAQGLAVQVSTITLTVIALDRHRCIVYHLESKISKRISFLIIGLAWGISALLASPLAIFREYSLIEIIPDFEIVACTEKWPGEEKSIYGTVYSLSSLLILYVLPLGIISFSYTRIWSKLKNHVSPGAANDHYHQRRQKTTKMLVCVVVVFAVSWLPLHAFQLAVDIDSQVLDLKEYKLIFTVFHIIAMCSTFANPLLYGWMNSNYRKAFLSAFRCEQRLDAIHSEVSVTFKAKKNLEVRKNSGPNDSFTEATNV

In the case of Cc1cc(Oc2cnn(C)c2)cc(C(=O)Nc2ccc(F)cn2)n1 [22iA], the inhibition at 10 µM [1] is reported as 63%, the IC50 [2] is reported as ≥ 30 µM and the CLp ([3]; IV 0.5 mg/kg) is reported as 2.28 L/h/kg. It also gave an MRT ([3]; IV 0.5 mg/kg) of 1.41 h, a Vss ([3]; IV 0.5 mg/kg) of 3.2 L/kg and a t1/2 ([3]; IV 0.5 mg/kg) of 1.55 h. For the same compound, the “AUC0-∞” value ([3]; PO 3.0 mg/kg) was 0.264 µg·h/mL, the Cmax ([3]; PO 3.0 mg/kg) was 0.0703 µg/mL and the Tmax ([3]; PO 3.0 mg/kg) was 0.67 h. The “%F” value ([3]; PO 3.0 mg/kg, oral bioavailability) was 20%, the inhibition at 10 µM [4] was -12% and the fraction unbound at 6 h, 5 µM [5] was 0.059. For the same compound, the inhibition at 10 µM [6] was -5%, the inhibition at 10 µM [7] was 15% and the inhibition at 10 µM [8] was ≥ 70%. For the same compound, the inhibition at 10 µM [9] was ≥ 70%, the IC50 [10] was ≥ 30 µM and the “% inh at 10 μM” value [11] was 2%. For the same compound, the inhibition at 10 µM [12] was 14%, the turnover in hepatocytes [13] was “high turnover” and the inhibition at 10 µM [14] was 0%. For the same compound, the IC50 [15] was ≥ 30 µM, the inhibition at 10 µM [16] was 6% and the “% inh at 10 μM” value [17] was 9%.
